The source of these data is patent US20200123142A1, “Substituted Cyclohexylamine Compounds” (EPIZYME, INC., priority 2018, published 2020).

The assay has as its target T1, SMYD3 (Homo sapiens, UniProt Q9H7B4).
T1 construct: Expressed full-length human His-tagged SMYD3 protein was purified from cell paste; His6 (cleaved yes); SUMO (with TEV site) (cleaved yes); made in house; host or cells: E. coli BL21 codonplus RIL
T1 sequence (Q9H7B4 1-428): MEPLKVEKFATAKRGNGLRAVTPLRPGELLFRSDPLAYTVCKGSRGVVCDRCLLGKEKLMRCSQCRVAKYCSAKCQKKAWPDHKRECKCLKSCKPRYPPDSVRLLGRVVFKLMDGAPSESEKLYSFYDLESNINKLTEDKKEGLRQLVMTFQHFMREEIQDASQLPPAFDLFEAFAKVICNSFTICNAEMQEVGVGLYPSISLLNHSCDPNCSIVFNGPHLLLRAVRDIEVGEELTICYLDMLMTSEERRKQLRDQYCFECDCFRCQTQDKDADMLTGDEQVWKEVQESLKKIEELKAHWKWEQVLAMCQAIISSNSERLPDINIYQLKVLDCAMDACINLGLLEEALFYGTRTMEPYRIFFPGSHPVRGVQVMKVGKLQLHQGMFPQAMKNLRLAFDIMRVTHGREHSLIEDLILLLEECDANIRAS
Put plainly: SMYD3 Biochemical Assay (SMYD3 enzyme assay on MEKK2 protein substrate, 3H-SAM, scintillation proximity assay). The note with it: read-out: SMYD3 Biochem IC50 (uM)*. The text has this:
S-adenosylmethionine (SAM), S-adenosylhomocysteine (SAH), Tris, Tween20, dimethylsulfoxide (DMSO), bovine skin gelatin (BSG), and Tris(2-carboxyethyl)phosphine hydrochloride solution (TCEP) were purchased from Sigma-Aldrich at the highest level of purity possible. ^3H-SAM was purchase from American Radiolabeled Chemicals with a specific activity of 80 Ci/mmol.
This protein was expressed in High Five insect cells and purified to >85% purity. Protein identity was confirmed by MS/MS analysis after proteolytic digestion. The protein sequence used was:
Full-length human SMYD3 isoform 1 (BAB86333) was inserted into a modified pET21b plasmid containing a His6 tag and TEV and SUMO cleavage sites.
Transformed cells were grown and selected on LB agar with 100 μg/mL ampicillin and 17 μg/mL chloramphenicol at 37° C. overnight. A single clone was used to inoculate 200 mL of LB medium with 100 μg/mL ampicillin and 17 μg/mL chloramphenicol and incubated at 37° C. on an orbital shaker at 180 rpm. […] Once OD600 reached about 0.4, IPTG was added to a final concentration of 0.1 mM and the cells were grown overnight at 15° C. and 160 rpm. Cells were harvested by centrifugation at 8000 rpm, for 4 minutes at 4° C. and stored at −80° C. for purification. […]

Take `NCCC(=O)N(CCN)[C@H]1CC[C@H](NC(=O)c2cc(C3CC3)on2)CC1` [compound 35, N-((1r,4r)-4-(3-amino-N-(2-aminoethyl)pro-panamido)cyclo-hexyl)-5-cyclo-propylisoxazole-3-carboxamide]: the IC50 (in general, the concentration at which inhibition is half-maximal) stood at 0.883 µM.
